Measurements as given in ChEMBL document CHEMBL3137667, “[Drug-induced liver injury; fourteenth updated edition of the bibliographic database of liver injuries and related drugs]” (Gastroenterol Clin Biol, 2004).

How the values were obtained:
[1] = Highest frequency of moderate liver toxicity observed during clinical trials, expressed as a percentage. [column '% BIOL' in source]; conditions: human
[2] = Highest frequency of acute liver toxicity observed during clinical trials, expressed as a percentage. [column '% AIGUE' in source]; conditions: human
[3] = human, serum
[4] = human, serum; remark: listed apart in the source
[5] = human
[6] = human; remark: listed apart in the source
[7] = human; remark: listed apart in the source
[8] = human, serum, 4383 h
[9] = human; remark: listed apart in the source
[10] = human; remark: listed apart in the source
[11] = human; remark: listed apart in the source
[12] = human; remark: listed apart in the source
[13] = human; remark: listed apart in the source
[14] = human; remark: listed apart in the source
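For Hepatotoxicity (association with vascular disease) in this document: count of indexed literature references reporting vascular liver injury in humans, e.g. peliosis hepatitis, hepatic veno-occlusive disease or Budd-Chiari syndrome.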
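For Hepatotoxicity (benign tumour) in this document: value is a count of indexed literature references citing a benign tumour confirmed by histopathology.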
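For Hepatotoxicity (choleostasis) in this document: human cholestatic liver injury, shown by histopathology or by peak ALT or AST elevation over alkaline phosphatase ratio below 2, value counts indexed literature reports.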
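For Hepatotoxicity (chronic liver disease) in this document: chronic liver injury confirmed by histopathology or persistently raised serum aminotransferase activity beyond 6 months, value given as the count of indexed literature references.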
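For Hepatotoxicity (cirrhosis) in this document: value is a count of indexed literature references reporting cirrhosis confirmed by histopathology.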
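For Hepatotoxicity (cytolytic) in this document: human cytolytic liver injury, shown by histopathology or by a ratio above 5 of peak ALT or AST elevation to alkaline phosphatase elevation, value counts indexed references.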
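For Hepatotoxicity (granulomatous hepatitis) in this document: value is a count of indexed literature references reporting granulomatous liver disease confirmed by histopathology.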
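For Hepatotoxicity (malignant tumour) in this document: malignant tumour confirmed by histopathology, value gives the count of indexed literature references reporting it.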
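For Hepatotoxicity (severe hepatitis) in this document: human clinical data: severe hepatitis, meaning potentially life-threatening liver failure or clinically observed cases, the value counts how many indexed literature references report it.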
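For Hepatotoxicity (steatosis) in this document: steatosis confirmed by histopathology, value is the count of indexed references.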

| SMILES | Hepatotoxicity (moderate) [1] | Hepatotoxicity (acute) [2] | Hepatotoxicity (moderate) [3] | Hepatotoxicity (acute) [4] | Hepatotoxicity (cytolytic) [5] | Hepatotoxicity (choleostasis) [6] | Hepatotoxicity (severe hepatitis) [7] | Hepatotoxicity (chronic liver disease) [8] | Hepatotoxicity (cirrhosis) [9] | Hepatotoxicity (granulomatous hepatitis) [10] | Hepatotoxicity (association with vascular disease) [11] | Hepatotoxicity (steatosis) [12] | Hepatotoxicity (malignant tumour) [13] | Hepatotoxicity (benign tumour) [14] |
| --- | --- | --- | --- | --- | --- | --- | --- | --- | --- | --- | --- | --- | --- | --- |
| O=C(O)c1ccccc1Nc1cccc(C(F)(F)F)c1 [FLUFENAMIC ACID] | 0% | 0% | 1 | 0 | 0 | 0 | 0 | 0 | 0 | 0 | 0 | 0 | 0 | 0 |
| Fc1ccc(C(c2ccc(F)cc2)N2CCN(C/C=C/c3ccccc3)CC2)cc1 [FLUNARIZINE] | 1.4% | 0% | 1 | 0 | 0 | 0 | 0 | 0 | 0 | 0 | 0 | 0 | 0 | 0 |
| C[C@H](C(=O)O)c1ccc2oc(-c3ccc(F)cc3)nc2c1 [FLUNOXAPROFEN] | 0% | 0% | 2 | 0 | 0 | 0 | 0 | 0 | 0 | 0 | 0 | 0 | 0 | 0 |
| CN1CCN(C2=Nc3cc(F)ccc3Cc3ccccc32)CC1 [FLUPERLAPINE] | 23% | 0% | 4 | 0 | 0 | 0 | 0 | 0 | 0 | 0 | 0 | 0 | 0 | 0 |
| CCOC(=O)Nc1ccc(NCc2ccc(F)cc2)nc1N [FLUPIRTINE] | 10% | 0% | 2 | 0 | 0 | 0 | 0 | 0 | 0 | 0 | 0 | 0 | 0 | 0 |
| CC[C@H]1OC(=O)[C@H](C)[C@@H](O[C@H]2C[C@@](C)(OC)[C@@H](O)[C@H](C)O2)[C@H](C)[C@@H](O[C@@H]2O[C@H](C)C[C@H](N(C)C)[C@H]2O)[C@](C)(O)C[C@](C)(F)C(=O)[C@H](C)[C@@H](O)[C@]1(C)O [FLURITHROMYCIN] | 3.6% | 0% | 1 | 0 | 0 | 0 | 0 | 0 | 0 | 0 | 0 | 0 | 0 | 0 |
| O=C(O)P(=O)(O)O [FOSCARNET] | 12% | 0% | 2 | 0 | 0 | 0 | 0 | 0 | 0 | 0 | 0 | 0 | 0 | 0 |
| O=CN(O)CCCP(=O)(O)O [FOSMIDOMYCIN] | 7.7% | 0% | 1 | 0 | 0 | 0 | 0 | 0 | 0 | 0 | 0 | 0 | 0 | 0 |
| CCOP(=O)(OCC)C(C)NC(=O)N(CCCl)N=O (stereo not drawn) [FOTEMUSTINE] | 30.8% | 0% | 9 | 1 | 0 | 0 | 0 | 0 | 0 | 0 | 0 | 0 | 0 | 0 |
| CO[C@@H]1[C@H](OC(=O)/C=C/C=C/C=C/C=C/C(=O)O)CC[C@]2(CO2)[C@H]1[C@@]1(C)O[C@@H]1CC=C(C)C [FUMAGILLIN] | 16.7% | 3.4% | 2 | 1 | 1 | 0 | 0 | 0 | 0 | 0 | 0 | 0 | 0 | 0 |
| COc1ccc(CCN(C)CCCC(C#N)(c2cc(OC)c(OC)c(OC)c2)C(C)C)cc1OC (stereo not drawn) [GALLOPAMIL] | 4% | 0% | 1 | 0 | 0 | 0 | 0 | 0 | 0 | 0 | 0 | 0 | 0 | 0 |
| CC(C)=CCC/C(C)=C/CC/C(C)=C/CCC(=O)OC/C=C(\C)CCC=C(C)C [GEFARNATE] | 1% | 0% | 1 | 0 | 0 | 0 | 0 | 0 | 0 | 0 | 0 | 0 | 0 | 0 |
